Measured values published in US8604085B2, “Bupropion hydrobromide polymorphs” (Valeant International Bermuda, priority 2008, dated 2013).
Where two headings read alike, the source gives them in different places.

Experiments:
Assay type in all cases: physicochemical
[1] = Slurries in 2-propanol at room temperature, 50° C. and 80° C.; conditions: form by XRD
Experimental: 0.050 g of Form I were suspended in 4 ml of solvent and stirred at room temperature. for 1 week (7 days). The sample was filtered and analyzed by X-ray diffraction.
0.040 g of Form I+0.040 g of Form II were suspended in 4 ml of solvent and stirred at room temperature for 1 week (7 days). The sample was filtered and analyzed by X-ray diffraction experiments.
0.050 g of Form II were suspended in 4 ml of solvent and stirred at room temperature for 1 week (7 days). The sample was filtered and analyzed by X-ray diffraction experiments.
0.050 g of Form I were suspended in 4 ml of solvent and stirred at 50° C. for 1 Week (7 days). The sample was filtered and analyzed by X-ray diffraction experiments.
0.040 g of Form I+0.040 g of Form II were suspended in 4 ml of solvent and stirred at 50° C. for 1 week (7 days). The sample was filtered and analyzed by X-ray diffraction experiments.
Form I+Form II were suspended in solvent and stirred at 80° C. for 14 hours. The sample was filtered and analyzed by X-ray diffraction experiments. […] Slurry in 2-propanol at 80° C. is an atypical experiment because if we consider the boiling point of the solvent, it could be defined as a combination between a slurry and precipitation experiment. Form I was obtained during the precipitation from supersaturated solution by 2-propanol. However the high temperature and the reflux produce the energetic conditions needed by the stable crystal form (Form II) to convert to the metastable crystal form (Form I).

[2] = Precipitation by anti-solvent (ethyl acetate) addition at room temperature
Text: The samples were filtered and analyzed by X-ray diffraction. Form I converts into Form II using chloroform, and also with benzyl alcohol. The other experiments yield only Form I. See Table 54 for Form I precipitation results by anti-solvent addition.

[3] = Qualitative solubility screening; conditions: thermodynamic from solid, 50 mg in 4 mL, read-out: Solubility at Room Temp (RT)
Experimental: Bupropion hydrobromide (50 mg) was introduced in 4 mL of solvent under stirring for about 1 hour at room temperature. See Table 41 for the qualitative solubility data.

[4] = Comparison of the stability of several bupropion salts in open and closed vials at about 40 degrees C. and about 75% relative humidity (HPLC); conditions: about 40 degrees C., about 75% relative humidity, various periods of time
Experimental: A comparison of the stability of several bupropion salts, including the hydrobromide, hydrochloride, maleate, tosylate, fumarate, succinate, tartrate and citrate salts, was performed by placing these salts in both open and closed vials in a stability chamber kept at about 40 degrees C. and about 75% relative humidity for various periods of time (e.g. 10 days, 13 days, 14 days, 20 days, 24 days, or 32 days). The stability of the salts was evaluated based on the formation of the main degradation products as determined by HPLC analysis and the % potency (or assay) of the API, after specific time periods in the stability chamber. The effect of the addition of solvents, such as water, ethanol and isopropyl alcohol, was also studied.

[5] = Forced degradation studies of bupropion hydrobromide and bupropion hydrochloride in closed bottles; conditions: about 40 degrees C., about 75% relative humidity
Experimental: Further stability tests were performed by directly comparing bupropion hydrobromide and bupropion hydrochloride salts in forced degradation studies. […] At specified times, the material in the bottles was analyzed for the presence of degradation products and % potency (% assay).

[6] = Forced degradation studies of the API's in the presence of standard excipients; conditions: with standard excipients; about 24 and about 48 hours at about 55° C., about 55° C. and 100% relative humidity, about 105° C.
Experimental: Forced degradation studies were also performed on bupropion hydrobromide and bupropion hydrochloride API's in the presence of standard excipients used in pharmaceutical formulations.

[7] = Release of bupropion base from the salt
Experimental: It was previously observed that when 150 mg of bupropion HCl was tested for its release of bupropion, the base value that was released was 130 mg. However, when 150 mg of bupropion HBr was tested, the base value released was only 112 mg. Thus, the amount of bupropion HBr had to be increased in order to increase the base value from 112 mg to 130 mg, which was the target.

Br.CC(NC(C)(C)C)C(=O)c1cccc(Cl)c1 (single isomer, unassigned) [Form I]
Form II: Precipitation Result ([2]; solvent Benzyl Alcohol) | Precipitation Result ([2]; solvent Chloroform)
remained as Form I: Slurry result in 2-propanol ([1]; mixture Form I+Form II, 80° C., 14 hours)
Form I: Precipitation Result ([2]; solvent 1-Butanol) | Precipitation Result ([2]; solvent 1-Methyl-2-Pyrrolidone) | Precipitation Result ([2]; solvent 1-Propanol) | Precipitation Result ([2]; solvent 2-Methoxy Ethanol) | Precipitation Result ([2]; solvent 2-Methyl-1-Propanol) | Precipitation Result ([2]; solvent 2-Propanol) | Precipitation Result ([2]; solvent Dichloromethane) | Precipitation Result ([2]; solvent Dimethylformamide) | Precipitation Result ([2]; solvent Ethanol) | Precipitation Result ([2]; solvent Methanol)
converted to Form II: Slurry result in 2-propanol ([1]; 50° C., 1 week (7 days)) | Slurry result in 2-propanol ([1]; room temperature, 1 week (7 days))

Br.CC(NC(C)(C)C)C(=O)c1cccc(Cl)c1 (stereo not drawn) [Bupropion hydrobromide, 3′-chloro-2-t-butylamino-1-propiophenone hydrobromide]
112 mg: base value that was released ([7]; 150 mg of the salt tested)
least amount of degradation products: amount of degradation products compared with other bupropion salts [4]
< 12.5 mg/mL: solubility ([3]; organic solvent or mixture, solvent 1,2-Dimethoxy Ethane) | solubility ([3]; organic solvent or mixture, solvent 1-Octanol) | solubility ([3]; organic solvent or mixture, solvent 3-Pentanone) | solubility ([3]; organic solvent or mixture, solvent 4-Methyl-2-Pentanone) | solubility ([3]; organic solvent or mixture, solvent (±)2-Butanol) | solubility ([3]; organic solvent or mixture, solvent Acetone) | solubility ([3]; organic solvent or mixture, solvent Benzonitrile) | solubility ([3]; organic solvent or mixture, solvent Cyclohexane) | solubility ([3]; organic solvent or mixture, solvent Diethyl Carbonate) | solubility ([3]; organic solvent or mixture, solvent Diethyl Ether) | solubility ([3]; organic solvent or mixture, solvent Dioxane) | solubility ([3]; organic solvent or mixture, solvent Ethyl Acetate) | solubility ([3]; organic solvent or mixture, solvent Ethyl Benzoate) | solubility ([3]; organic solvent or mixture, solvent Ethyl Formate) | solubility ([3]; organic solvent or mixture, solvent Iso-Propyl-Ether) | solubility ([3]; organic solvent or mixture, solvent Isopropyl Acetate) | solubility ([3]; organic solvent or mixture, solvent Mesitylene) | solubility ([3]; organic solvent or mixture, solvent Methyl Benzoate) | solubility ([3]; organic solvent or mixture, solvent Methyl Ethyl Ketone) | solubility ([3]; organic solvent or mixture, solvent Methyl-Cyclohexan) | solubility ([3]; organic solvent or mixture, solvent Nitrobenezene) | solubility ([3]; organic solvent or mixture, solvent Propyl Acetate) | solubility ([3]; organic solvent or mixture, solvent Tert-Butanol) | solubility ([3]; organic solvent or mixture, solvent Tetrahydrofuran) | solubility ([3]; organic solvent or mixture, solvent Toluene) | solubility ([3]; organic solvent or mixture, solvent n-Hexan) | solubility ([3]; organic solvent or mixture, solvent n-Hexane) | solubility ([3]; organic solvent or mixture, solvent p-Xylene) | solubility ([3]; organic solvent or mixture, solvent t-Butyl Methyl Ether)
lowest amount of degradation: amount of degradation (bupropion degradation impurities) versus bupropion hydrochloride [6]
130 mg: base value that was released ([7]; 174 mg of the salt tested)
> 12.5 mg/mL: solubility ([3]; organic solvent or mixture, solvent 1-Butanol) | solubility ([3]; organic solvent or mixture, solvent 1-Methyl-2-Pyrrolidone) | solubility ([3]; organic solvent or mixture, solvent 1-Propanol) | solubility ([3]; organic solvent or mixture, solvent 2-Methoxy Ethanol) | solubility ([3]; organic solvent or mixture, solvent 2-Methyl-1-Propanol) | solubility ([3]; organic solvent or mixture, solvent 2-Propanol) | solubility ([3]; organic solvent or mixture, solvent Acetonitrile) | solubility ([3]; organic solvent or mixture, solvent Benzyl Alcohol) | solubility ([3]; organic solvent or mixture, solvent Chloroform) | solubility ([3]; organic solvent or mixture, solvent Dichloromethane) | solubility ([3]; organic solvent or mixture, solvent Dimethil sulfoxyde) | solubility ([3]; organic solvent or mixture, solvent Dimethyl Formamide) | solubility ([3]; organic solvent or mixture, solvent Ethanol) | solubility ([3]; organic solvent or mixture, solvent Methanol) | solubility ([3]; organic solvent or mixture, solvent Nitromethane) | solubility ([3]; water, solvent Water)
generally lower: amount of impurities compared to the bupropion hydrochloride salt [5]
generally higher: % potency compared to the bupropion hydrochloride salt [5]
